# Test results published in the supplement of paper PMC10307832.
# What was measured:
# Assay in all cases: relative viability (nuclei count vs DMSO), 5 days (fraction); higher = more cells survive
# Adavosertib + Lapatinib = compound: C=CCn1c(=O)c2cnc(Nc3ccc(N4CCN(C)CC4)cc3)nc2n1-c1cccc(C(C)(C)O)n1 [Adavosertib] + CS(=O)(=O)CCNCc1ccc(-c2ccc3ncnc(Nc4ccc(OCc5cccc(F)c5)c(Cl)c4)c3c2)o1 [Lapatinib] (partner 2 µM)
# In short: (§1)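 Dosing by pin tool came one day after lung cancer cell lines were seeded in 1536-well plates, using either one drug or a fixed anchor-drug dose plus five library-drug doses (not always all listed) in √10 steps. After 5 days, nuclei were counted on 4× images. Relative viability is treated-well nuclei count divided by vehicle-well nuclei count, and values are medians of duplicate plates.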
# Adavosertib + Pictilisib = compound: C=CCn1c(=O)c2cnc(Nc3ccc(N4CCN(C)CC4)cc3)nc2n1-c1cccc(C(C)(C)O)n1 [Adavosertib] + CS(=O)(=O)N1CCN(Cc2cc3nc(-c4cccc5[nH]ncc45)nc(N4CCOCC4)c3s2)CC1 [Pictilisib] (partner 1 µM)
# In short: as §1
# Nelarabine + Lapatinib = compound: COc1nc(N)nc2c1ncn2[C@@H]1O[C@H](CO)[C@@H](O)[C@@H]1O [Nelarabine] + CS(=O)(=O)CCNCc1ccc(-c2ccc3ncnc(Nc4ccc(OCc5cccc(F)c5)c(Cl)c4)c3c2)o1 [Lapatinib] (partner 2 µM)
# In short: as §1
# Nelarabine + Alpelisib = compound: COc1nc(N)nc2c1ncn2[C@@H]1O[C@H](CO)[C@@H](O)[C@@H]1O [Nelarabine] + Cc1nc(NC(=O)N2CCC[C@H]2C(N)=O)sc1-c1ccnc(C(C)(C)C(F)(F)F)c1 [Alpelisib] (partner 2 µM)
# In short: as §1
cell line,measurement,setting,value
A-427,relative viability,Adavosertib + Lapatinib; first compound 0.01 µM,1.01
same,relative viability,Adavosertib + Lapatinib; first compound 0.03162 µM,1.02
same,relative viability,Adavosertib + Lapatinib; first compound 0.1 µM,1.07
same,relative viability,Adavosertib + Lapatinib; first compound 0.3162 µM,0.999
same,relative viability,Adavosertib + Pictilisib; first compound 0.01 µM,0.735
same,relative viability,Adavosertib + Pictilisib; first compound 0.03162 µM,0.653
same,relative viability,Adavosertib + Pictilisib; first compound 0.1 µM,0.684
same,relative viability,Adavosertib + Pictilisib; first compound 0.3162 µM,0.798
same,relative viability,Nelarabine + Lapatinib; first compound 0.01 µM,1.15
same,relative viability,Nelarabine + Lapatinib; first compound 0.03162 µM,0.973
same,relative viability,Nelarabine + Lapatinib; first compound 0.1 µM,1.14
same,relative viability,Nelarabine + Lapatinib; first compound 0.3162 µM,1.1
same,relative viability,Nelarabine + Lapatinib; first compound 1 µM,1.11
same,relative viability,Nelarabine + Alpelisib; first compound 0.01 µM,0.851
same,relative viability,Nelarabine + Alpelisib; first compound 0.03162 µM,1.06
same,relative viability,Nelarabine + Alpelisib; first compound 0.1 µM,1.11
same,relative viability,Nelarabine + Alpelisib; first compound 0.3162 µM,1.07
same,relative viability,Nelarabine + Alpelisib; first compound 1 µM,1.05
NCI-H1651,relative viability,Adavosertib + Lapatinib; first compound 0.01 µM,0.956
same,relative viability,Adavosertib + Lapatinib; first compound 0.03162 µM,0.715
same,relative viability,Adavosertib + Lapatinib; first compound 0.1 µM,0.752
same,relative viability,Adavosertib + Lapatinib; first compound 0.3162 µM,0.682
same,relative viability,Adavosertib + Pictilisib; first compound 0.01 µM,0.497
same,relative viability,Adavosertib + Pictilisib; first compound 0.03162 µM,0.491
same,relative viability,Adavosertib + Pictilisib; first compound 0.1 µM,0.565
same,relative viability,Adavosertib + Pictilisib; first compound 0.3162 µM,0.42
same,relative viability,Nelarabine + Lapatinib; first compound 0.01 µM,1.1
same,relative viability,Nelarabine + Lapatinib; first compound 0.03162 µM,1.02
same,relative viability,Nelarabine + Lapatinib; first compound 0.1 µM,1.05
same,relative viability,Nelarabine + Lapatinib; first compound 0.3162 µM,0.881
same,relative viability,Nelarabine + Lapatinib; first compound 1 µM,0.854
same,relative viability,Nelarabine + Alpelisib; first compound 0.01 µM,1.15
same,relative viability,Nelarabine + Alpelisib; first compound 0.03162 µM,0.963
same,relative viability,Nelarabine + Alpelisib; first compound 0.1 µM,1.12
same,relative viability,Nelarabine + Alpelisib; first compound 0.3162 µM,1.02
same,relative viability,Nelarabine + Alpelisib; first compound 1 µM,0.855
IA-LM,relative viability,Adavosertib + Lapatinib; first compound 0.01 µM,0.996
same,relative viability,Adavosertib + Lapatinib; first compound 0.1 µM,1.03
same,relative viability,Adavosertib + Lapatinib; first compound 0.3162 µM,0.901
same,relative viability,Adavosertib + Pictilisib; first compound 0.01 µM,0.363
same,relative viability,Adavosertib + Pictilisib; first compound 0.03162 µM,0.404
same,relative viability,Adavosertib + Pictilisib; first compound 0.1 µM,0.418
same,relative viability,Adavosertib + Pictilisib; first compound 0.3162 µM,0.365
same,relative viability,Nelarabine + Lapatinib; first compound 0.01 µM,1.01
same,relative viability,Nelarabine + Lapatinib; first compound 0.03162 µM,0.74
same,relative viability,Nelarabine + Lapatinib; first compound 0.1 µM,0.829
same,relative viability,Nelarabine + Lapatinib; first compound 0.3162 µM,0.9
same,relative viability,Nelarabine + Lapatinib; first compound 1 µM,0.932
same,relative viability,Nelarabine + Alpelisib; first compound 0.01 µM,0.928
same,relative viability,Nelarabine + Alpelisib; first compound 0.03162 µM,0.957
same,relative viability,Nelarabine + Alpelisib; first compound 0.1 µM,0.789
same,relative viability,Nelarabine + Alpelisib; first compound 0.3162 µM,0.871
same,relative viability,Nelarabine + Alpelisib; first compound 1 µM,0.826
SK-LU-1,relative viability,Adavosertib + Lapatinib; first compound 0.01 µM,0.857
same,relative viability,Adavosertib + Lapatinib; first compound 0.03162 µM,0.834
same,relative viability,Adavosertib + Lapatinib; first compound 0.1 µM,0.787
same,relative viability,Adavosertib + Lapatinib; first compound 0.3162 µM,0.281
same,relative viability,Adavosertib + Pictilisib; first compound 0.01 µM,0.649
same,relative viability,Adavosertib + Pictilisib; first compound 0.03162 µM,0.532
same,relative viability,Adavosertib + Pictilisib; first compound 0.1 µM,0.456
same,relative viability,Adavosertib + Pictilisib; first compound 0.3162 µM,0.242
same,relative viability,Nelarabine + Lapatinib; first compound 0.01 µM,1.24
same,relative viability,Nelarabine + Lapatinib; first compound 0.03162 µM,0.617
same,relative viability,Nelarabine + Lapatinib; first compound 0.1 µM,0.887
same,relative viability,Nelarabine + Lapatinib; first compound 0.3162 µM,0.94
same,relative viability,Nelarabine + Lapatinib; first compound 1 µM,0.885
same,relative viability,Nelarabine + Alpelisib; first compound 0.01 µM,1.36
same,relative viability,Nelarabine + Alpelisib; first compound 0.03162 µM,0.608
same,relative viability,Nelarabine + Alpelisib; first compound 0.1 µM,0.87
same,relative viability,Nelarabine + Alpelisib; first compound 0.3162 µM,1.22
same,relative viability,Nelarabine + Alpelisib; first compound 1 µM,1
Calu-6,relative viability,Adavosertib + Lapatinib; first compound 0.01 µM,1.07
same,relative viability,Adavosertib + Lapatinib; first compound 0.03162 µM,1
same,relative viability,Adavosertib + Lapatinib; first compound 0.1 µM,1.04
same,relative viability,Adavosertib + Lapatinib; first compound 0.3162 µM,0.356
same,relative viability,Adavosertib + Pictilisib; first compound 0.01 µM,0.922
same,relative viability,Adavosertib + Pictilisib; first compound 0.03162 µM,0.875
same,relative viability,Adavosertib + Pictilisib; first compound 0.1 µM,0.788
same,relative viability,Adavosertib + Pictilisib; first compound 0.3162 µM,0.333
same,relative viability,Nelarabine + Lapatinib; first compound 0.01 µM,1.29
same,relative viability,Nelarabine + Lapatinib; first compound 0.03162 µM,1.04
same,relative viability,Nelarabine + Lapatinib; first compound 0.1 µM,1.08
same,relative viability,Nelarabine + Lapatinib; first compound 0.3162 µM,1.18
same,relative viability,Nelarabine + Lapatinib; first compound 1 µM,1.14
same,relative viability,Nelarabine + Alpelisib; first compound 0.01 µM,1.1
same,relative viability,Nelarabine + Alpelisib; first compound 0.1 µM,0.979
same,relative viability,Nelarabine + Alpelisib; first compound 0.3162 µM,0.972
same,relative viability,Nelarabine + Alpelisib; first compound 1 µM,1.11
BEN,relative viability,Adavosertib + Lapatinib; first compound 0.01 µM,0.751
same,relative viability,Adavosertib + Lapatinib; first compound 0.03162 µM,0.728
same,relative viability,Adavosertib + Lapatinib; first compound 0.1 µM,0.801
same,relative viability,Adavosertib + Lapatinib; first compound 0.3162 µM,0.948
same,relative viability,Adavosertib + Pictilisib; first compound 0.01 µM,0.575
same,relative viability,Adavosertib + Pictilisib; first compound 0.03162 µM,0.682
same,relative viability,Adavosertib + Pictilisib; first compound 0.1 µM,0.587
same,relative viability,Adavosertib + Pictilisib; first compound 0.3162 µM,0.558
same,relative viability,Nelarabine + Lapatinib; first compound 0.01 µM,0.905
same,relative viability,Nelarabine + Lapatinib; first compound 0.03162 µM,0.69
same,relative viability,Nelarabine + Lapatinib; first compound 0.1 µM,0.941
same,relative viability,Nelarabine + Lapatinib; first compound 0.3162 µM,0.684
same,relative viability,Nelarabine + Lapatinib; first compound 1 µM,0.778
same,relative viability,Nelarabine + Alpelisib; first compound 0.01 µM,1.53
same,relative viability,Nelarabine + Alpelisib; first compound 0.03162 µM,0.95
same,relative viability,Nelarabine + Alpelisib; first compound 0.1 µM,1.1
same,relative viability,Nelarabine + Alpelisib; first compound 0.3162 µM,1.06
same,relative viability,Nelarabine + Alpelisib; first compound 1 µM,1.08
NCI-H1915,relative viability,Adavosertib + Lapatinib; first compound 0.01 µM,0.984
same,relative viability,Adavosertib + Lapatinib; first compound 0.03162 µM,0.923
same,relative viability,Adavosertib + Lapatinib; first compound 0.1 µM,1.02
same,relative viability,Adavosertib + Lapatinib; first compound 0.3162 µM,0.959
same,relative viability,Adavosertib + Pictilisib; first compound 0.01 µM,0.97
same,relative viability,Adavosertib + Pictilisib; first compound 0.03162 µM,1
same,relative viability,Adavosertib + Pictilisib; first compound 0.1 µM,1.05
same,relative viability,Adavosertib + Pictilisib; first compound 0.3162 µM,0.985
same,relative viability,Nelarabine + Lapatinib; first compound 0.01 µM,1.19
same,relative viability,Nelarabine + Lapatinib; first compound 0.03162 µM,0.867
same,relative viability,Nelarabine + Lapatinib; first compound 0.1 µM,1.01
same,relative viability,Nelarabine + Lapatinib; first compound 0.3162 µM,1.09
same,relative viability,Nelarabine + Lapatinib; first compound 1 µM,0.997
same,relative viability,Nelarabine + Alpelisib; first compound 0.01 µM,1.2
same,relative viability,Nelarabine + Alpelisib; first compound 0.03162 µM,1.05
same,relative viability,Nelarabine + Alpelisib; first compound 0.1 µM,1.11
same,relative viability,Nelarabine + Alpelisib; first compound 0.3162 µM,1.07
same,relative viability,Nelarabine + Alpelisib; first compound 1 µM,1.06
COR-L23,relative viability,Adavosertib + Lapatinib; first compound 0.01 µM,1.06
same,relative viability,Adavosertib + Lapatinib; first compound 0.03162 µM,1.09
same,relative viability,Adavosertib + Lapatinib; first compound 0.1 µM,0.769
same,relative viability,Adavosertib + Lapatinib; first compound 0.3162 µM,0.415
same,relative viability,Adavosertib + Pictilisib; first compound 0.01 µM,0.665
same,relative viability,Adavosertib + Pictilisib; first compound 0.03162 µM,0.636
same,relative viability,Adavosertib + Pictilisib; first compound 0.1 µM,0.722
same,relative viability,Adavosertib + Pictilisib; first compound 0.3162 µM,0.266
same,relative viability,Nelarabine + Lapatinib; first compound 0.01 µM,1.39
same,relative viability,Nelarabine + Lapatinib; first compound 0.03162 µM,1.17
same,relative viability,Nelarabine + Lapatinib; first compound 0.1 µM,1.12
same,relative viability,Nelarabine + Lapatinib; first compound 0.3162 µM,1.02
same,relative viability,Nelarabine + Lapatinib; first compound 1 µM,0.982
same,relative viability,Nelarabine + Alpelisib; first compound 0.01 µM,0.969
same,relative viability,Nelarabine + Alpelisib; first compound 0.03162 µM,0.768
same,relative viability,Nelarabine + Alpelisib; first compound 0.1 µM,0.743
same,relative viability,Nelarabine + Alpelisib; first compound 0.3162 µM,0.869
same,relative viability,Nelarabine + Alpelisib; first compound 1 µM,0.747
ChaGo-K-1,relative viability,Adavosertib + Pictilisib; first compound 0.01 µM,0.579
same,relative viability,Adavosertib + Pictilisib; first compound 0.03162 µM,0.678
same,relative viability,Adavosertib + Pictilisib; first compound 0.1 µM,0.663
same,relative viability,Adavosertib + Pictilisib; first compound 0.3162 µM,0.631
NCI-H441,relative viability,Adavosertib + Pictilisib; first compound 0.01 µM,0.561
same,relative viability,Adavosertib + Pictilisib; first compound 0.03162 µM,0.497
same,relative viability,Adavosertib + Pictilisib; first compound 0.1 µM,0.378
same,relative viability,Adavosertib + Pictilisib; first compound 0.3162 µM,0.33
same,relative viability,Nelarabine + Alpelisib; first compound 0.01 µM,0.974
same,relative viability,Nelarabine + Alpelisib; first compound 0.03162 µM,0.675
same,relative viability,Nelarabine + Alpelisib; first compound 0.1 µM,0.704
same,relative viability,Nelarabine + Alpelisib; first compound 0.3162 µM,0.921
same,relative viability,Nelarabine + Alpelisib; first compound 1 µM,0.986
